Data reported in ChEMBL document CHEMBL5505950, “An updated review of chemical compounds with anti-Toxoplasma gondii activity” (Eur J Med Chem, 2023).

Columns and labels:
[1] = test system: Toxoplasma gondii; assay: Antiparasitic activity against Toxoplasma gondii RH tachyzoites infected in human HFF cells assessed as parasitic growth inhibition; assay type: functional; conditions: time 72 hrs, read-out: ED50 (the source's name)
[2] = Inhibition of recombinant Toxoplasma gondii Farnesyl pyrophosphate synthase
[3] = test system: Toxoplasma gondii; assay: Antiparasitic activity against Toxoplasma gondii tachyzoites infected in hTRET cells assessed as parasitic growth inhibition; assay type: functional, organism-based
[4] = test system: Toxoplasma gondii; assay: Antiparasitic activity against Toxoplasma gondii tachyzoites infected in hTRET cells assessed as reduction in parasitic growth; assay type: functional; conditions: read-out: ED50 (the source's name)
[5] = Inhibition of Toxoplasma gondii Farnesyl pyrophosphate synthase
[6] = Inhibition of Toxoplasma gondii Heptaprenyl Diphosphate Synthase Coq1 expressed in Escherichia coli BL21
[7] = test system: Toxoplasma gondii; assay: Antiparasitic activity against Toxoplasma gondii assessed as parasitic growth inhibition; assay type: functional, organism-based
[8] = molecular target: T1, Bifunctional dihydrofolate reductase-thymidylate synthase (Toxoplasma gondii, UniProt Q07422); assay: Inhibition of Toxoplasma gondii Dihydrofolate reductase
T1 sequence (Q07422 whole entry): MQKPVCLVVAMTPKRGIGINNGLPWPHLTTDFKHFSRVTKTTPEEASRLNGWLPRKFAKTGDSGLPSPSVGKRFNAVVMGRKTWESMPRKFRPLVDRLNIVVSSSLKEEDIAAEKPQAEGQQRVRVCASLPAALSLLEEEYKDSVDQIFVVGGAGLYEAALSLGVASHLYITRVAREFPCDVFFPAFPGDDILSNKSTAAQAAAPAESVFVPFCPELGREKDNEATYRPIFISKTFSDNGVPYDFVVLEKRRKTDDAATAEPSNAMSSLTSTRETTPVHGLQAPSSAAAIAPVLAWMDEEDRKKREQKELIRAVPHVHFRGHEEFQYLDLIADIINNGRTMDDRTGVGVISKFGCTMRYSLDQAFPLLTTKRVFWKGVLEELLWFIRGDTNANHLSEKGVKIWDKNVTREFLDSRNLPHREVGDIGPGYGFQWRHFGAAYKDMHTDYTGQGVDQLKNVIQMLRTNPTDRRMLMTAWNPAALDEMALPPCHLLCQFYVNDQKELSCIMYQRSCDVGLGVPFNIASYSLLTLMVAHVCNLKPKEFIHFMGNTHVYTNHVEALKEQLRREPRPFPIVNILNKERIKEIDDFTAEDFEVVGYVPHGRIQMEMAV

[9] = test system: Toxoplasma gondii; assay: Antiparasitic activity against Toxoplasma gondii EGS infected in human HFF cells; assay type: functional; conditions: read-out: ED50 (the source's name)

Cc1coc2c1C(=O)C(=O)c1c-2ccc2c1CCCC2(C)C [TANSHINONE IIA]
EC50 [1]: 1000 nM

CCCCCCCCCCSCC(P(=O)(O)O)P(=O)(O)O
IC50 [2]: 21 nM
EC50 [3]: 1800 nM

CCCCCCCCCC(O)(P(=O)(O)O)P(=O)(O)O
EC50 [4]: 850 nM
IC50 [5]: 130 nM
IC50 [6]: 2130 nM

CC(C)(C)C1CCC(CC2C(=O)C(=O)c3ccccc3C2O)CC1 (stereo unspecified)
EC50 [1]: 1180 nM

CCCCCCCCCCS(=O)(=O)CC(P(=O)(O)O)P(=O)(O)O
IC50 [2]: 270 nM
EC50 [3]: 110 nM

N#CSCCOc1ccc(Oc2ccccc2)cc1
EC50 [7]: 4800 nM

CCc1sc2nc(N)[nH]c(=O)c2c1Sc1ccc(C(=O)N[C@@H](CCC(=O)O)C(=O)O)cc1
IC50 [8]: 2 nM

N#C[Se]CCOc1ccc(Oc2ccccc2)cc1
EC50 [7]: 3700 nM

COC(=O)/C=C1/S/C(=N/N=C(/C)c2ccccn2)NC1=O
EC50 [4]: 200 nM

C[C@@H](COC(=O)N1CCC(n2c(=O)n(C)c3ccccc32)CC1)N(Cc1ccccc1)Cc1ccccc1
EC50 [4]: 200 nM

O=C(NC1CC1)c1ccc(N2CCC(Cc3ccccc3)CC2)nc1
EC50 [1]: 2810 nM

CCCCCCCSCC(P(=O)(O)O)P(=O)(O)O
IC50 [2]: 69 nM
EC50 [3]: 970 nM

CNc1[nH]c(Nc2ccc(C(=O)N3CCOCC3)cc2OC)nc2ncc(Cl)c1-2
EC50 [1]: 5880 nM

COC(=O)/C=C1/S/C(=N/N=C\c2ccccc2O)NC1=O
EC50 [4]: 660 nM

Cc1c(NC(=O)c2ccc(C(C)(C)C)cc2)cccc1-c1cn(C)c(=O)c(Nc2ccc(C(=O)N3CCOCC3)cc2)n1
EC50 [1]: 14600 nM

CO/N=C(\C(=O)OC)c1ccccc1CO/N=C(\C)c1cccc(C(F)(F)F)c1
EC50 [1]: 500 nM

CCc1sc2nc(N)[nH]c(=O)c2c1Sc1ccc([N+](=O)[O-])cc1
IC50 [8]: 8 nM

O=C(OCCOCc1ccccc1)N1CCC(n2c(=O)[nH]c3ccccc32)CC1
EC50 [4]: 500 nM

CCc1sc2nc(N)[nH]c(=O)c2c1Sc1ccc2ccccc2c1
IC50 [8]: 8 nM

O=P(O)(O)C(CSCCOc1cccc(Oc2ccccc2)c1)P(=O)(O)O
EC50 [3]: 670 nM

COc1ccc(CCCCCCC(=O)O)cc1Cc1cnc2nc(N)nc(N)c2c1OC
IC50 [8]: 3 nM

CCOc1ccc2cc(-c3nn(C(C)(C)C)c(N)c3C(N)=O)cnc2c1
EC50 [1]: 2760 nM

COc1ccc(C#Cc2cccc(C(=O)O)c2)cc1Cc1cnc2nc(N)nc(N)c2c1OC
IC50 [8]: 5 nM

O=C1C(O)=C([C@H]2CC[C@H](c3ccc(Cl)cc3)CC2)C(=O)c2ccccc21 [ATOVAQUONE]
EC50 [1]: 180 nM

CO/C=C(\C(=O)OC)c1ccccc1Oc1cc(Oc2ccccc2C#N)ncn1 [Azoxystrobin]
EC50 [1]: 7050 nM

C[C@@H](COC(=O)NCCCn1c(=O)n(C)c2ccccc21)N(Cc1ccccc1)Cc1ccccc1
EC50 [4]: 380 nM

N#C[Se]CCOc1cccc(Oc2ccccc2)c1
EC50 [7]: 2870 nM

CCC(=O)CCCCC[C@@H]1NC(=O)[C@H]2C[C@H](C)CN2C(=O)[C@H](Cc2ccccc2)NC(=O)[C@](C)(CC)NC1=O
EC50 [1]: 11 nM

CC[C@]1(C)NC(=O)[C@H](CCCCCC(=O)[C@@H](C)OC(C)=O)NC(=O)[C@H]2C[C@H](C)CN2C(=O)[C@H](Cc2ccccc2)NC1=O
EC50 [1]: 1 nM

OCCOCCN1CCN(C(c2ccccc2)c2ccc(Cl)cc2)CC1 (stereo unspecified) [HYDROXYZINE]
EC50 [1]: 2500 nM

O=C(CCCCCCC(=O)Nc1ccccc1)NO [VORINOSTAT]
EC50 [9]: 70 nM

COC(=O)/C=C1/S/C(=N/N=C(C)\C=N\O)NC1=O
EC50 [4]: 490 nM

CCc1sc2nc(N)[nH]c(=O)c2c1Sc1ccc(Br)cc1
IC50 [8]: 10 nM

CCCCCCCNCC(P(=O)(O)O)P(=O)(O)O
EC50 [3]: > 10000 nM

CCCCCCC[S+]([O-])CC(P(=O)(O)O)P(=O)(O)O (stereo unspecified)
IC50 [2]: 9 nM
EC50 [3]: 5000 nM
